Laboratory results published in patent US12465604B2 (priority 2015, dated 2025).
Marks after values point to notes of the source that are not given here.

Assays:
[1] = tested on: HIV-based vector integration sites in SupT1 cells; assay: Integration site distribution of HIV-based vector near mapped genomic features; assay type: cell-based
[2] = tested on: OGH reporter virus in activated primary CD4+ T-cells; settings: 3 days post infection, trend
Description: Peripheral Blood Mononuclear cells (PBMCs) were purified and CD4+ T-cells selectively enriched using Bi-specific MAb CD3.8 (AIDS reagents) for 5 days and infected with the OGH reporter virus. HIV infection was monitored 3 days post infection using flow cytometry analysis (FIG. 4).
Human PBMCs were purified, selectively enriched for CD4+ T cells using Bi-specific MAb CD3.8 and infected with the OGH reporter virus, in the presence or absence of LEDGINs (FIG. 7a,b).
Human peripheral blood mononuclear cells (PBMCs), obtained from the Red Cross Blood transfusion Center (Mechelen, Belgium) according to approved bioethical guidelines of our institute (S57175-IRB00002047), were purified from fresh buffy coats using lymphoprep density gradient centrifugation (Stem cell technologies). The CD4+ T cells were selectively enriched using Bi-specific MAb CD3.8 (0.5 μg/mL, AIDS reagents) for 5 days. Cells were cultured in RPMI 1640, 15% v/v FBS, 0.1% v/v Gentamicin, 100 U/ml IL-2 (Peprotech) (T-cell medium, TCM). Enriched total CD4+ primary T cells were infected with single round reporter virus for 2 h at 37° C., washed twice in TCM and reseeded in medium containing different concentrations of LEDGIN CX014442. HIV infection was monitored 48 h post infection using flow cytometry analysis.

[3] = tested on: HIV-based vector integration sites in SupT1 cells; assay: Integration frequency near safe harbor criteria; assay type: cell-based
HIV-1 = assay: 'late' IC50 stated in legend of FIG. 8; assay type: cell-based; settings: Human immunodeficiency virus 1
[4] = tested on: NL4.3 virus in primary CD4+ T cells
Description: Next we evaluated the multimodal effect of LEDGIN treatment on integration, assembly and reactivation in a multiple round reactivation model using WT HIV in resting CD4+ T-cells in order to model the in vivo situation. PHA/IL-2 activated primary (resting) CD4+ T cells were infected with NL4.3 virus in the presence of submicromolar concentrations of LEDGINs. At day four post infection (p.i.) LEDGINs were removed and cells were reseeded in the presence of PMA and PHA. Virus production upon reactivation was measured at day 7 p.i. by p24 ELISA.
Resting CD4+ T cells were purified using a custom-made EasySep negative selection kit (Stem Cell Technologies; 19052 cocktail, with the addition of CD25, CD69, and HLA-DR antibodies (catalogue number 19309VK)). […] Four days post-infection cells were washed twice using PBS and some cells were harvested for quantification of integrated proviral DNA using real time PCR (nested Alu-LTR PCR, (Butler et al., 2001; Lewin et al., 2008) normalized for input DNA by qPCR for the CCR5 gene as previously described (Zhang et al., 1999). Other cells were reseeded in the presence of 10 nM PMA (Sigma-Aldrich) together with 10 μg/mL PHA (Sigma-Aldrich) or left untreated. PHA activated feeder peripheral blood mononuclear cells (PBMCs) were added 24 h after the activating stimulus to amplify virus replication and enhance detection of the infection (Saleh et al., 2011). […]

[5] = tested on: single-round HIV-based lentiviral vector in SupT1 cells; assay: Transduction efficiency of single-round HIV-based lentiviral vector (eGFP flow cytometry); assay type: cell-based; settings: dilution series, data not shown
Text: In a next step we employed the recently developed LEDGINs, small molecules that inhibit LEDGF/p75-IN interaction and inhibit integration of HIV provirus (Christ et al., 2010, above) to investigate the impact of LEDGIN treatment on the HIV reservoir in cell culture. SupT1 cells were transduced with a single-round HIV-based lentiviral vector expressing the enhanced Green Fluorescent Protein (eGFP) reporter protein and treated with a dilution series of LEDGIN CX014442 (Christ et al 2012, above). […] In a first step, we determined integration site distribution of HIV-based viral vector integration sites (Gijsbers et al., 2009; Marshall et al., 2007). The number of integration sites is indicated for each data set (Table 2). First, we analysed lentiviral integration relative to a set of genomic features.

[6] = tested on: HIV OGH double reporter virus in SupT1 cells; assay type: cell-based, HIV-1; settings: SupT1, 3 days post infection, increasing concentrations
[7] = tested on: HIV NL4-3.tCD34.R-.E- in SupT1 cells; assay: microbe, parasite or virus in culture; assay type: cell-based; settings: Human immunodeficiency virus 1, NL43, SUP-T1, read-out: inhibition of reactivation from latency
[8] = tested on: HIV-OGH double reporter virus in SupT1 cells; assay: Reactivation with TNFα, SupT1 cells infected with HIV-OGH double reporter virus; assay type: cell-based, HIV-1; settings: SupT1, 50 μM
Description: To corroborate these findings SupT1 cells were infected with the HIV-OGH double reporter virus under different LEDGIN (CX014442) concentrations. SupT1 cells were infected and reactivated under conditions similar to the experiment with HIV tCD34 (FIGS. 2 and 5). Data are represented in FIG. 6. Two different virus dilutions are depicted in panel A and B. In both graphs the percentage eGFP+, mKO2+ cells and overall % mKO2 positive cells is plotted after stimulation with DMSO or TNFα for 24 h. The dashed lines show an increase in percentage of eGFP+, mKO2+ cells after stimulation with TNFα compared to DMSO, while the overall percentage of mKO2 positive cells remains constant. LEDGIN treatment reduces the reactivation of eGFP+, mKO2+ cells in a concentration-dependent manner, with 50 μM of CX014442 reducing reactivation to only 1.5-2 fold (FIG. 6C).
11 days post infection the infected cells were reactivated from latency using TNFalpha (10 ng/mL, Immunosource), SAHA (0.3 to 3 μM, AIDS reagents), prostratin (5 μM, AIDS reagents) or PMA (0.3 μM, AIDS reagents) 24 hours prior to analysis by flow cytometry. Time courses and drug concentrations are indicated in the individual experiments. LEDGINs were synthesized by the Cistim/CD3-facility (courtesy of Dr. A. Marchand).

[9] = tested on: NL4-3.tCD34.R-.E-/VSV-G latent provirus in Nalm LEDGF/p75 KO (−/−) cells; assay type: cell-based, HIV
[10] = tested on: NL4-3.tCD34.R-.E-/VSV-G latent provirus in Nalm wt (+/c) cells; assay type: cell-based, HIV
[11] = compound concentration 0.78125 μM
[12] = compound concentration 1.5625 μM
[13] = compound concentration 3.125 μM

## CCCC(C(=O)O)c1c(C)nc2ccc(Cl)cc2c1-c1ccccc1 (centres unmarked) [CX014442, 2-(6-chloro-2-methyl-4-phenylquinolin-3-yl)pentanoic acid]
[1]; compound concentration 0.54 μM
  % CpG within 2 kb: 2.33%
  % CpG within 4 kb: 5.83%
  % DHS within 2 kb: 24.07%
  % DHS within 4 kb: 39.94%
  % TSS within 2 kb: 2.00%
  % TSS within 4 kb: 5.92%
  in RefGene: 70.58%
[1]; compound concentration 1.5 μM
  % CpG within 2 kb: 2.37%
  % CpG within 4 kb: 5.79%
  % DHS within 2 kb: 20.94%
  % DHS within 4 kb: 37.18%
  % TSS within 2 kb: 2.41%
  % TSS within 4 kb: 5.88%
  in RefGene: 70.37%
[1]; compound concentration 3 μM
  % CpG within 2 kb: 1.73%
  % CpG within 4 kb: 5.39%
  % DHS within 2 kb: 21.49%
  % DHS within 4 kb: 37.55%
  % TSS within 2 kb: 1.97%
  % TSS within 4 kb: 5.59%
  in RefGene: 66.60%
[1]; compound concentration 6 μM
  % CpG within 2 kb: 2.97%
  % CpG within 4 kb: 6.39%
  % DHS within 2 kb: 21.78%
  % DHS within 4 kb: 37.12%
  % TSS within 2 kb: 3.03%
  % TSS within 4 kb: 6.45%
  in RefGene: 65.23** %
[1]; compound concentration 12 μM
  % CpG within 2 kb: 3.39%
  % CpG within 4 kb: 7.35%
  % DHS within 2 kb: 23.6%
  % DHS within 4 kb: 38.57%
  % TSS within 2 kb: 3.96** %
  % TSS within 4 kb: 7.58%
  in RefGene: 61.88*** %
[1]; compound concentration 25 μM
  % CpG within 2 kb: 4.97** %
  % CpG within 4 kb: 10.26** %
  % DHS within 2 kb: 22.19%
  % DHS within 4 kb: 40.07%
  % TSS within 2 kb: 4.30** %
  % TSS within 4 kb: 8.94%
  in RefGene: 60.93*** %
[1]; compound concentration 50 μM
  % CpG within 2 kb: 5.50%
  % CpG within 4 kb: 11.72*** %
  % DHS within 2 kb: 26.08%
  % DHS within 4 kb: 40.67%
  % TSS within 2 kb: 6.94%
  % TSS within 4 kb: 12.68*** %
  in RefGene: 54.55%
[1]; histone marks, data not shown
  epigenetic preference of integration for transcriptionally active regions: inverted in a dose dependent manner
[1]; shift out of transcriptionally active regions
  concentration at which a significant difference compared to wt in global integration preferences was reached: above 12 μM
[2]
  % latently infected cells: increased
[3]; [11]
  % in UCR: 6.36%
  % in transcript. Units: 74.95%
  % within 50 kb of TSS: 31.13%
  % within 300 kb of miRNAs: 25.54%
  % within 300 kb of onco: 38.15%
  Total % safe: 11.14%
[3]; [12]
  % in UCR: 7.24%
  % in transcript. Units: 75.11%
  % within 50 kb of TSS: 29.28%
  % within 300 kb of miRNAs: 22.52%
  % within 300 kb of onco: 35.47%
  Total % safe: 10.36%
[3]; [13]
  % in UCR: 7.77%
  % in transcript. Units: 71.91%
  % within 50 kb of TSS: 28.57%
  % within 300 kb of miRNAs: 23.34%
  % within 300 kb of onco: 35.45%
  Total % safe: 11.31%
[3]; compound concentration 6.25 μM
  % in UCR: 6.03%
  % in transcript. Units: 70.48%
  % within 50 kb of TSS: 29.46%
  % within 300 kb of miRNAs: 21.76%
  % within 300 kb of onco: 33.03%
  Total % safe: 13.32%
[3]; compound concentration 12.5 μM
  % in UCR: 9.39%
  % in transcript. Units: 67.42%
  % within 50 kb of TSS: 31.33%
  % within 300 kb of miRNAs: 24.89%
  % within 300 kb of onco: 33.03%
  Total % safe: 13.24%
[3]; compound concentration 25 μM
  % in UCR: 6.95%
  % in transcript. Units: 66.06%
  % within 50 kb of TSS: 29.80%
  % within 300 kb of miRNAs: 21.52%
  % within 300 kb of onco: 35.26%
  Total % safe: 14.57%
[3]; compound concentration 50 μM
  % in UCR: 5.98%
  % in transcript. Units: 59.57%
  % within 50 kb of TSS: 32.54%
  % within 300 kb of miRNAs: 22.25%
  % within 300 kb of onco: 35.65%
  Total % safe: 16.51%
HIV-1
  IC50: 0.06 µM
[4]; 4 days p.i., submicromolar concentrations
  number of proviral DNA copies: reduced
[4]; day 7 p.i., average of two donors
  p24 production upon reactivation with PMA and PHA: reduced
[5]
  % eGFP positive cells (transduction efficiency): dose-dependent decrease
[6]
  % eGFP+, mKO2+ cells: dose dependent decrease
  overall % mKO2 positive cells: dose dependent decrease
[7]
  EC50: 7.24 µM
[8]
  reactivation of eGFP+, mKO2+ cells after TNFα relative to DMSO: 1.5-2 fold

## O=C(CCCCCCC(=O)Nc1ccccc1)NO [SAHA, Suberoylanilide Hydroxamic acid]
[9]
  reactivation of tCD34 expression: 2 fold
[10]
  reactivation of tCD34 expression: 3- to 4 fold
